Consider 21 compounds from patent publication US20220033396A1, “FURTHER HETEROAROMATIC COMPOUNDS HAVING ACTIVITY AGAINST RSV” (priority 2018, published 2022).

One data set is described as follows: in vitro. The conditions noted are these: human.
For the next data set, the system named is rgRSV224 virus. Description: microbe, parasite or virus in culture. It is filed as cell-based. To be noted: human respiratory syncytial virus, 72 h; rgRSV224 virus (MOI=1), HeLa cells, GFP expression three days post-virus exposure; averaged data of several repeat experiments; read-out: RSV HELA EC50.

Compound `C[C@@H]1c2ccccc2CCN1C(=O)c1cn2cc(-c3ccc(N4C[C@H](O)[C@@H](O)C4)cc3F)nc2c(C2CC2)n1` [Compound 48, (8-cyclopropyl-2-(4-((3 S,4 S)-3,4-dihydroxypyrrolidin-1-yl)-2-fluorophenyl)imidazo[1,2-a]pyrazin-6-yl)((R)-1-methyl-3,4-dihydroisoquinolin-2(1H)-yl)methanone] showed a CC50 at 3 days in the data set “in vitro” of 58.8 µM. Further, the EC50 (in general, the concentration at which the effect is half-maximal) in the data set with rgRSV224 virus came out at 3.77 µM.

Consider `C[C@@H]1c2ccccc2CCN1C(=O)c1cc(C2CC2)c2nc(-c3ccc(N4CC(O)C4)cc3F)cn2c1` [Compound 27, 1-(4-{8-Cyclopropyl-6-[(1R)-1-methyl-1,2,3,4-tetrahydroisoquinoline-2-carbonyl]imidazo[1,2-a]pyridin-2-yl}-3-fluorophenyl)azetidin-3-ol], for which the CC50 at 3 days in “in vitro” was 98.1 µM. Moreover, the EC50 in the data set on rgRSV224 virus was 0.119 µM.

For `C[C@@H]1c2ccsc2CCN1C(=O)c1cc(-c2cccnc2)c2nc(-c3ccc(N4CC[C@H](C(N)=O)C4)cc3F)cn2c1` (single isomer, unassigned) [Compound 18, (3S)-1-(3-Fluoro-4-{6-[(4*R)-4-methyl-4,5,6,7-tetrahydro-thieno[3,2-c]pyridine-5-carbonyl]-8-(pyridin-3-yl)imidazo[1,2-a]pyridin-2-yl}phenyl)pyrrolidine-3-carboxamide], the CC50 at 3 days in the data set “in vitro” turned out to be 21.7 µM. In addition, in the data set on rgRSV224 virus, the EC50 came out at 0.108 µM.

Consider `Cc1c(-c2ccc(N3CC[C@H](C(N)=O)C3)cc2F)nc2c(C3CC3)cc(C(=O)N3CCc4ccccc4[C@H]3C)cn12` [Compound 21, (3S)-1-(4-{8-Cyclopropyl-3-methyl-6-[(1R)-1-methyl-1,2,3,4-tetrahydroisoquinoline-2-carbonyl]imidazo[1,2-a]pyridin-2-yl}-3-fluorophenyl)pyrrolidine-3-carboxamide], for which the CC50 at 3 days in the data set “in vitro” was determined as 35 µM. In the data set on rgRSV224 virus, the 50% effective concentration (EC50) was 0.638 µM.

In the case of `C[C@@H]1c2ccccc2CCN1C(=O)c1cc(-c2cccc(F)c2)c2nc(-c3ccc(NC(=O)N4CC[C@@H](O)C4)cc3F)cn2n1` [Compound 43, (R)-N-(3-fluoro-4-(8-(3-fluorophenyl)-6-((R)-1-methyl-1,2,3,4-tetrahydroisoquinoline-2-carbonyl)imidazo[1,2-b]pyridazin-2-yl)phenyl)-3-hydroxypyrrolidine-1-carboxamide], in the data set “in vitro”, the CC50 at 3 days was over 100 µM. Further, the EC50 in the data set on rgRSV224 virus was 0.022 µM.

In “in vitro”, `C[C@@H]1c2ccccc2CCN1C(=O)c1cc(-c2cccnc2)c2nc(-c3ccc(N4CC[C@H](C(N)=O)C4)cc3F)cn2c1` [Compound 17, (3S)-1-(3-Fluoro-4-{6-[(1R)-1-methyl-1,2,3,4-tetrahydroisoquinoline-2-carbonyl]-8-(pyridin-3-yl)imidazo[1,2-a]pyridin-2-yl}phenyl)pyrrolidine-3-carboxamide] gave a CC50 at 3 days of 44.3 µM. Further, the concentration giving a half-maximal response (EC50) in the data set on rgRSV224 virus is 0.163 µM.

In turn, `C[C@@H]1c2ccccc2CCN1C(=O)c1cc(N2CCCC2)c2nc(-c3ccc(N4CC[C@H](C(N)=O)C4)cc3F)cn2c1` [Compound 20, (3S)-1-(3-Fluoro-4-{6-[(1R)-1-methyl-1,2,3,4-tetrahydroisoquinoline-2-carbonyl]-8-(pyrrolidin-1-yl)imidazo[1,2-a]pyridin-2-yl}phenyl)pyrrolidine-3-carboxamide] gave a CC50 at 3 days in the data set “in vitro” of over 100 µM. In addition, the EC50 with rgRSV224 virus came to 0.149 µM.

In turn, `CC1c2ccsc2CCN1C(=O)c1cc(C2CC2)c2nc(-c3ccc(NC(=O)N4CC[C@@H](O)C4)cc3F)cn2n1` (single isomer, unassigned) [Compound 38, (R)-N-(4-(8-cyclopropyl-6-((R*)-4-methyl-4,5,6,7-tetrahydrothieno[3,2-c]pyridine-5-carbonyl)imidazo[1,2-b]pyridazin-2-yl)-3-fluorophenyl)-3-hydroxypyrrolidine-1-carboxamide] registered a CC50 at 3 days in the data set “in vitro” of 35.9 µM. The EC50 in the data set on rgRSV224 virus is 0.012 µM.

`C[C@@H]1c2ccccc2CCN1C(=O)c1cc(C2CC2)c2nc(-c3ccc(N4CC[C@H](C(=O)O)C4)cc3F)cn2c1` [Compound 9, (3S)-1-(4-{8-Cyclopropyl-6-[(1R)-1-methyl-1,2,3,4-tetrahydroisoquinoline-2-carbonyl]imidazo[1,2-a]pyridin-2-yl}-3-fluorophenyl)pyrrolidine-3-carboxylic Acid]: the CC50 at 3 days in “in vitro” stood at 68.4 µM. Further, in the data set with rgRSV224 virus, the EC50 turned out to be 0.045 µM.

With `C[C@@H]1CCCCCN1C(=O)c1cc(C2CC2)c2nc(-c3ccc(N4CC[C@H](C(N)=O)C4)cc3F)cn2c1` [Compound 15, (3S)-1-(4-{8-Cyclopropyl-6-[(2R)-2-methylazepane-1-carbonyl]imidazo[1,2-a]pyridin-2-yl}-3-fluorophenyl)pyrrolidine-3-carboxamide], the CC50 at 3 days in the data set “in vitro” worked out at 13.2 µM. In the data set on rgRSV224 virus, the EC50 is 1.07 µM.

`C[C@@H]1c2ccccc2CCN1C(=O)c1cc(C2CC2)c2nc(-c3ccc(C4C[C@@H]4C(=O)NS(C)(=O)=O)cc3F)cn2c1` (relative stereo) [Compound 8, Trans 2-(4-{8-Cyclopropyl-6-[(1R)-1-methyl-1,2,3,4-tetrahydroisoquinoline-2-carbonyl]imidazo[1,2-a]pyridin-2-yl}-3-fluorophenyl)-N-methanesulfonylcyclopropane-1-carboxamide] came in with a CC50 at 3 days in “in vitro” of 69.1 µM. The EC50 in the data set with rgRSV224 virus was determined as 0.793 µM.

Turning to `CCc1cc(C(=O)N2CCc3ccccc3[C@H]2C)nn2cc(-c3ccc4c(c3F)C=C(C(N)=O)CO4)nc12` [Compound 45, (R)-6-(8-ethyl-6-(1-methyl-1,2,3,4-tetrahydroisoquinoline-2-carbonyl)imidazo[1,2-b]pyridazin-2-yl)-5-fluoro-2H-chromene-3-carboxamide], in the data set “in vitro”, the CC50 at 3 days was over 100 µM. Besides, the half-maximal effective concentration (EC50) in the data set on rgRSV224 virus turned out to be 0.105 µM.

For the compound `C[C@@H]1c2ccccc2CCN1C(=O)c1cc(C2CC2)c2nc(-c3ccc(NC(=O)N4CC(O)C4)cc3F)cn2c1` [Compound 30, (R)-N-(4-(8-cyclopropyl-6-(1-methyl-1,2,3,4-tetrahydroisoquinoline-2-carbonyl)imidazo[1,2-a]pyridin-2-yl)-3-fluorophenyl)-3-hydroxyazetidine-1-carboxamide], the CC50 at 3 days in the data set “in vitro” came to 43.4 µM. For the same compound, the EC50 in the data set with rgRSV224 virus came to 0.089 µM.

In the data set “in vitro”, `C[C@@H]1c2ccccc2CCN1C(=O)c1cc(C2CC2)c2nc(-c3ccc(N4C[C@H](O)[C@@H](O)C4)cc3F)cn2n1` [Compound 51, (8-cyclopropyl-2-(4-((3 S,4 S)-3,4-dihydroxypyrrolidin-1-yl)-2-fluorophenyl)imidazo[1,2-b]pyridazin-6-yl)((R)-1-methyl-3,4-dihydroisoquinolin-2(1H)-yl)methanone] yielded a CC50 at 3 days of 38 µM. For the same compound, the half-maximal effective concentration (EC50) in the data set on rgRSV224 virus worked out at 0.013 µM.

In “in vitro”, `C[C@@H]1c2ccccc2CCN1C(=O)c1cc(C2CC2)c2nc(-c3ccc(N4CC[C@H](O)C4)cc3F)cn2c1` [Compound 12, (3S)-1-(4-{8-Cyclopropyl-6-[(1R)-1-methyl-1,2,3,4-tetrahydroisoquinoline-2-carbonyl]imidazo[1,2-a]pyridin-2-yl}-3-fluorophenyl)pyrrolidin-3-ol] yielded a CC50 at 3 days of 67.7 µM. In the data set on rgRSV224 virus, the EC50 turned out to be 0.169 µM.

`C[C@@H]1c2ccccc2CCN1C(=O)c1cc(C2CC2)c2nc(-c3ccc(-n4cc(C(N)=O)cn4)cc3F)cn2c1` [Compound 26, 1-(4-{8-Cyclopropyl-6-[(1R)-1-methyl-1,2,3,4-tetrahydroisoquinoline-2-carbonyl]imidazo[1,2-a]pyridin-2-yl}-3-fluorophenyl)-1H-pyrazole-4-carboxamide]: in the data set “in vitro”, the CC50 at 3 days was determined as 42.7 µM. In the data set on rgRSV224 virus, the EC50 stood at 0.202 µM.

`C[C@@H]1c2ccsc2CCN1C(=O)c1cc(C2CC2)c2nc(-c3ccc(N4CC[C@H](C(N)=O)C4)nc3F)cn2c1` (single isomer, unassigned) [Compound 23, (3S)-1-(5-{8-cyclopropyl-6-[(4*R)-4-methyl-4,5,6,7-tetrahydrothieno[3,2-c]pyridine-5-carbonyl]imidazo[1,2-a]pyridin-2-yl}-6-fluoropyridin-2-yl)pyrrolidine-3-carboxamide] displayed a CC50 at 3 days in “in vitro” of 34.7 µM. In addition, the concentration giving a half-maximal response (EC50) in the data set with rgRSV224 virus worked out at 0.18 µM.

`C[C@@H]1c2ccccc2CCN1C(=O)c1cc(C2CC2)c2nc(-c3ccc(C4C[C@@H]4C(N)=O)cc3F)cn2c1` (relative stereo) [Compound 7, Trans 2-(4-{8-Cyclopropyl-6-[(1R)-1-methyl-1,2,3,4-tetrahydroisoquinoline-2-carbonyl]imidazo[1,2-a]pyridin-2-yl}-3-fluorophenyl)cyclopropane-1-carboxamide] registered a CC50 at 3 days in the data set “in vitro” of 65.4 µM. For the same compound, in the data set on rgRSV224 virus, the half-maximal effective concentration (EC50) was found to be 0.184 µM.

In “in vitro”, `CCc1cc(C(=O)N2CCc3ccc(F)cc3C2C)nn2cc(-c3ccc(NC(=O)N4CC[C@@H](O)C4)cc3F)nc12` (single isomer, unassigned) [Compound 41, (R)-N-(4-(8-ethyl-6-((R*)-7-fluoro-1-methyl-1,2,3,4-tetrahydroisoquinoline-2-carbonyl)-imidazo[1,2-b]pyridazin-2-yl)-3-fluorophenyl)-3-hydroxypyrrolidine-1-carboxamide] returned a CC50 at 3 days of 26.8 µM. The EC50 in the data set on rgRSV224 virus came out at 0.026 µM.

Compound `C[C@@H]1c2ccccc2CCN1C(=O)c1cc(N(C)C)c2nc(-c3ccc(N4CC[C@H](C(N)=O)C4)cc3F)cn2c1` [Compound 19, (3S)-1-{4-[8-(Dimethylamino)-6-[(1R)-1-methyl-1,2,3,4-tetrahydroisoquinoline-2-carbonyl]imidazo[1,2-a]pyridin-2-yl]-3-fluorophenyl}pyrrolidine-3-carboxylamide] displayed a CC50 at 3 days in the data set “in vitro” of 43.9 µM. Moreover, the EC50 in the data set on rgRSV224 virus amounted to 0.141 µM.

As to `C[C@@H]1c2ccsc2CCN1C(=O)c1cc(C2CC2)c2nc(-c3ccc(N4CC[C@H](C(N)=O)C4)cc3F)cn2c1` (single isomer, unassigned) [Compound 13, (3S)-1-(4-{8-Cyclopropyl-6-[(4*R)-4-methyl-4,5,6,7-tetrahydro-thieno[3,2-c]pyridine-5-carbonyl]imidazo[1,2-a]pyridin-2-yl}-3-fluorophenyl)pyrrolidine-3-carboxamide], in the data set “in vitro”, the CC50 at 3 days was 77.1 µM. Besides, the concentration giving a half-maximal response (EC50) in the data set with rgRSV224 virus turned out to be 0.037 µM.
